In patent US12441768B2, “Compositions and methods for treating endometriosis” (EndoMet Biosciences, Inc., priority 2018, dated 2025):
Where a SMILES comes first, the peptide text is derived from it. [ ]: non-standard residue; d: D form. The star is where a group is joined. ξ: configuration not given here. NMeW = CN[C@@H](Cc1c[nH]c2ccccc12)C(=O)O; Stearoyl = CCCCCCCCCCCCCCCCCC(=O)*; ξαMeV = CC(C)C(C)(N)C(=O)O; ξαMeS = CC(N)(CO)C(=O)O; GABA = NCCCC(=O)O

Tests used:
[1] = tested on: colon cancer cell line (SW480); type: cell-based
Description: (§1) Peptides inhibiting β-catenin cause decreased cell viability in a colon cancer cell line (SW480) and endometriosis lesions excised from a disease animal model. Peptides from libraries described herein are characterized in their effect on cell viability, as measured using a luminescent cell viability assay (Cell Titer-Glo®, Promega, Madison, WI) and expressed as IC50 in Table 5. Peptide inhibitors were tested for their ability to inhibit cellular proliferation across 2 different β-catenin expressing pathogenic cell lines: a colon cancer cell line (SW480) and/or mouse EMS lesion cells derived from mouse model of disease. Both cells lines are naturally known to express high levels of β-catenin. Cell lines were incubated with varying concentrations of peptide concentration and assessed for viability after day 5 and 7 days. The CellTiter-Glo® Luminescent Cell Viability Assay (Promega) is used to detect viable cells. IC50 values are graphed and calculated using Prism software (GraphPad) based on the cell viability readouts. IC50 is used to assess inhibition of cell proliferation by peptide concentration and is used to calculate the inhibitory effect of each peptide across each line. The results are used to assess the therapeutic potency of the peptides. In the SW480 cell line, peptide inhibitors from Family 1 (SEQ ID NO:264) and Family 2 (SEQ ID NO:396) were added daily to the cell growth medium. After 7 days, cell viability was assessed with the Cell-Titer Glo kit (Promega, Madison, WI). […] IC50 was calculated for peptides based on the concentration at which 50% viability was observed (Table 5).

mouse EMS lesion cells = type: cell-based
Description: as §1

β-catenin = biological target: T1, β-catenin (Homo sapiens, UniProt P35222); assay: KD50 measurement using competitive fluorescence polarization (FP) with labelled TCF4; type: binding; conditions: fluorescence polarization, β-catenin; for Kd: read-out: β-Cat FP KD
T1 sequence (P35222 1-781): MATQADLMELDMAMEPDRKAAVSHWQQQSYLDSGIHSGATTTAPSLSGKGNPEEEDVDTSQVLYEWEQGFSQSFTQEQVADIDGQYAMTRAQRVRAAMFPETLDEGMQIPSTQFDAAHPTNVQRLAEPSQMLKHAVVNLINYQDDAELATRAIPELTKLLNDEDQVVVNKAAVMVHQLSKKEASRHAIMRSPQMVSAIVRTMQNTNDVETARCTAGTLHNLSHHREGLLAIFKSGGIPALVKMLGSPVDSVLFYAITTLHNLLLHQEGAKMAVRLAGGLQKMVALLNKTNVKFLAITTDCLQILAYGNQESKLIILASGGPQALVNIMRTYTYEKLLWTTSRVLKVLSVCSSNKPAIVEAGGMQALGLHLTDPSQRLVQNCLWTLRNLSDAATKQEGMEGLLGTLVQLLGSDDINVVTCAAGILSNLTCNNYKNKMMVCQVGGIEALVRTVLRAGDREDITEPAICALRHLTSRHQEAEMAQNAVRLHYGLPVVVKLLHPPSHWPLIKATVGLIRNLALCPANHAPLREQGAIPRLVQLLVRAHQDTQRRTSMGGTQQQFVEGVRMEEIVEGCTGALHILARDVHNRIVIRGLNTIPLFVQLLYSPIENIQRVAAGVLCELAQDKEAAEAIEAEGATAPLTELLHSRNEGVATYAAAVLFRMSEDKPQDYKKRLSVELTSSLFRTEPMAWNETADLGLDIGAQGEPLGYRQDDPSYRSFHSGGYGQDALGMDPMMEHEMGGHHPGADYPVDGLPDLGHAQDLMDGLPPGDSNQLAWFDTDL
Outline: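 Each compound competes against labelled TCF4 (5 nM) for 100 nM β-catenin at room temperature, tested over 10 nM to 30 uM. Signal: polarization at 470/520 nm excitation/emission. Three repeat experiments were performed.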

[2] = biological target: Wnt-responsive promoter (TCF/LEF); assay: Wnt-dependent luciferase reporter assay; type: cell-based, murine
Outline: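 EC50 (uM) derived from inhibition of luminescence in Wnt3a-stimulated murine 3T3 cells expressing luciferase under a TCF/LEF promoter, with peptides added across a concentration range and vehicle as control.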

[3] = % Viability non-Wnt responsive cells
EMS lesion = conditions: across the subtypes of EMS; cited from earlier work

Compound	IC50 [1] [µM]	IC50 (mouse EMS lesion cells) [µM]	Kd (β-catenin) [µM]	EC50 [2] [µM]	β-Cat FP Hill slope (β-catenin)	further results
CCCCCCCCCCCCCCCCCC(=O)N[C@@H](Cc1c[nH]c2ccccc12)C(=O)N(C)[C@@H](Cc1c[nH]c2ccccc12)C(=O)N[C@@H](CCC(=O)O)C(=O)NC(C)(CO)C(=O)N[C@H](C(=O)N[C@@H](CC(C)C)C(=O)N[C@@H](CC(=O)O)C(=O)N[C@@H](CCC(=O)O)C(=O)N[C@@H](Cc1c[nH]cn1)C(=O)NC(C)(C(=O)N[C@@H](CCC(N)=O)C(=O)N[C@@H](CCCNC(=N)N)C(=O)N[C@H](C(=O)N[C@@H](Cc1c[nH]c2ccccc12)C(=O)O)C(C)C)C(C)C)[C@@H](C)CC (single isomer, unassigned) [393/500]	1.7	5	> 30	–	–	–
CC[C@H](C)[C@H](NC(=O)[C@H](CC(C)C)NC(=O)[C@H](Cc1ccccc1)NC(=O)[C@H](Cc1c[nH]c2ccccc12)NC(=O)[C@@H](N)CCSC)C(=O)N[C@@H](CS)C(=O)N[C@@H](Cc1ccccc1)C(=O)N[C@@H](Cc1c[nH]c2ccccc12)C(=O)NCC(=O)O [compound 42] (H-MWFLICFWG-OH)	–	–	< 0.4	< 7.5	0.96	% Viability non-Wnt responsive cells (non-Wnt responsive cells): 108.69%
CC[C@@H]1NC(=O)[C@H]([C@@H](C)CC)NC(=O)[C@H](CC(C)C)NC(=O)[C@H](CC2CCCCC2)NC(=O)[C@H](Cc2c[nH]c3ccccc23)NC(=O)[C@@H](NC(C)=O)CCCCNC(=O)C[C@@H](C(=O)O)NC(=O)[C@H](Cc2c[nH]c3ccccc23)NC(=O)[C@H](C)NC1=O [compound 261] (HELM PEPTIDE1{[ac].K.W.[Cha].L.I.[Abu].A.W.D}$PEPTIDE1,PEPTIDE1,2:R3-10:R3$$$V2.0)	4	7.7	0.4 to 1	7.5 to 15	3	–
O=C(Nc1ccc([N+](=O)[O-])cc1Cl)c1cc(Cl)ccc1O [niclosamide]	–	–	–	–	–	EMS lesion progression (EMS lesion): successfully reversed
CGP049090	–	–	–	–	–	EMS lesion progression (EMS lesion): successfully reversed
Lauroyl-NH-W-NMeA-QK*ILDE*H-Chg-E*DVWK*-NH2 (WAQKILDEHGEDVWK; HELM PEPTIDE1{[CCCCCCCCCCCC(=O)[*:2]].W.[meA].Q.K.I.L.D.E.H.[O=C([C@@H](N[*:1])C1CCCCC1)[*:2]].E.D.V.W.K.[am]}$PEPTIDE1,PEPTIDE1,12:R3-16:R3|PEPTIDE1,PEPTIDE1,5:R3-9:R3$$$V2.0; SMILES CCCCCCCCCCCC(=O)N[C@@H](Cc1c[nH]c2ccccc12)C(=O)N(C)[C@@H](C)C(=O)N[C@@H](CCC(N)=O)C(=O)N[C@H]1CCCCNC(=O)CC[C@@H](C(=O)N[C@@H](Cc2c[nH]cn2)C(=O)N[C@H](C(=O)N[C@H]2CCC(=O)NCCCC[C@@H](C(N)=O)NC(=O)[C@H](Cc3c[nH]c4ccccc34)NC(=O)[C@H](C(C)C)NC(=O)[C@H](CC(=O)O)NC2=O)C2CCCCC2)NC(=O)[C@H](CC(=O)O)NC(=O)[C@H](CC(C)C)NC(=O)[C@H]([C@@H](C)CC)NC1=O; listed as Homo sapiens) [SEQ ID NO: 465]	–	–	–	–	–	Cell growth / viability (mouse EMS lesion cells; mouse EMS lesion cells, peptide added daily 0.024-25 uM, 5 days): inhibited cell growth
PKF 115-584	–	–	–	–	–	EMS lesion progression (EMS lesion): successfully reversed

Second part, led by results:

IC50 [1] [µM]	IC50 (mouse EMS lesion cells) [µM]	Kd (β-catenin) [µM]	EC50 [2] [µM]	β-Cat FP Hill slope (β-catenin)	Compound	further results
2.9	15	–	7.5 to 15	–	CCCCCCCCCCCCCCCC(=O)N[C@@H](Cc1c[nH]c2ccccc12)C(=O)N(C)[C@@H](Cc1c[nH]c2ccccc12)C(=O)N[C@@H](CCC(=O)O)C(=O)NC(C)(CO)C(=O)N[C@H](C(=O)N[C@@H](CC(C)C)C(=O)N[C@@H](CC(=O)O)C(=O)N[C@@H](CCC(=O)O)C(=O)N[C@@H](Cc1c[nH]cn1)C(=O)NC(C)(C(=O)N[C@@H](CCC(N)=O)C(=O)N[C@@H](CCCNC(=N)N)C(=O)N[C@H](C(=O)N[C@@H](Cc1c[nH]c2ccccc12)C(=O)NCC(=O)O)C(C)C)C(C)C)[C@@H](C)CC (single isomer, unassigned) [compound 396]	–
–	> 30	–	> 30	1.69	CCCC[C@@H]1NC(=O)[C@@H](NC(C)=O)CCCCNC(=O)C[C@@H](C(=O)O)NC(=O)[C@H](Cc2c[nH]c3ccccc23)NC(=O)[C@H](C)NC(=O)[C@H](CC)NC(=O)[C@H]([C@@H](C)CC)NC(=O)[C@H](CC(C)C)NC(=O)[C@H](CC2CCCCC2)NC(=O)[C@H](Cc2c[nH]c3ccccc23)NC1=O [compound 215] (HELM PEPTIDE1{[ac].K.[Nle].W.[Cha].L.I.[Abu].A.W.D}$PEPTIDE1,PEPTIDE1,2:R3-11:R3$$$V2.0)	viability [3]: 106%
5	26.3	0.4 to 1	–	3	CC[C@@H]1NC(=O)[C@H]([C@@H](C)CC)NC(=O)[C@H](CC(C)C)NC(=O)[C@H](C2CCCCC2)NC(=O)[C@H](Cc2c[nH]c3ccccc23)NC(=O)[C@@H](NC(C)=O)CCCCNC(=O)C[C@@H](C(=O)O)NC(=O)[C@H](Cc2c[nH]c3ccccc23)NC(=O)[C@H](C)NC1=O [compound 262] (HELM PEPTIDE1{[ac].K.W.[O=C([C@@H](N[*:1])C1CCCCC1)[*:2]].L.I.[Abu].A.W.D}$PEPTIDE1,PEPTIDE1,2:R3-10:R3$$$V2.0)	–
6.8	–	–	7.5 to 15	–	CCCCCCCCCCCCCCCCCC(=O)NCCCC(=O)N[C@@H](Cc1c[nH]c2ccccc12)C(=O)N(C)[C@@H](Cc1c[nH]c2ccccc12)C(=O)N[C@@H](CCC(=O)O)C(=O)NC(C)(CO)C(=O)N[C@H](C(=O)N[C@@H](CC(C)C)C(=O)N[C@@H](CC(=O)O)C(=O)N[C@@H](CCC(=O)O)C(=O)N[C@@H](Cc1c[nH]cn1)C(=O)NC(C)(C(=O)N[C@@H](CCC(N)=O)C(=O)N[C@@H](CCCNC(=N)N)C(=O)N[C@H](C(=O)N[C@@H](Cc1c[nH]c2ccccc12)C(=O)O)C(C)C)C(C)C)[C@@H](C)CC (stereo partly drawn) [compound 395] ({Stearoyl-GABA}-W[NMeW]E[ξαMeS]ILDEH[ξαMeV]QRVW-OH)	–
26.8	–	< 0.4	15 to 22.5	0.7	CC[C@H](C)[C@@H]1NC(=O)[C@@H](NC(=O)[C@H](CCC(N)=O)NC(=O)[C@H](C)N(C)C(=O)[C@H](Cc2c[nH]c3ccccc23)NC(=O)CCC(=O)O)CCCCNC(=O)CC[C@@H](C(=O)N[C@@H](Cc2c[nH]cn2)C(=O)N[C@H](C(=O)N[C@@H](CCC(N)=O)C(=O)N[C@@H](CCCNC(=N)N)C(=O)N[C@H](C(=O)N[C@@H](Cc2c[nH]c3ccccc23)C(=O)NCC(N)=O)C(C)C)C2CCCCC2)NC(=O)[C@H](CC(=O)O)NC(=O)[C@H](CC(C)C)NC1=O [compound 405] (HELM PEPTIDE1{[O=C(O)CCC(=O)[*:2]].W.[meA].Q.K.I.L.D.E.H.[O=C([C@@H](N[*:1])C1CCCCC1)[*:2]].Q.R.V.W.G.[am]}$PEPTIDE1,PEPTIDE1,5:R3-9:R3$$$V2.0)	–
14.9	0.8	< 0.4	–	–	CCCCCCCCCCCC(=O)N[C@@H](Cc1c[nH]c2ccccc12)C(=O)N(C)[C@@H](C)C(=O)N[C@@H](CCC(N)=O)C(=O)N[C@H]1CCCCNC(=O)C[C@@H](C(=O)N[C@@H](Cc2c[nH]cn2)C(=O)N[C@H](C(=O)N[C@@H](CCC(N)=O)C(=O)N[C@@H](CCCNC(=N)N)C(=O)N[C@H](C(=O)N[C@@H](Cc2c[nH]c3ccccc23)C(=O)NCC(N)=O)C(C)C)C2CCCCC2)NC(=O)[C@H](CC(=O)O)NC(=O)[C@H](CC(C)C)NC(=O)[C@H]([C@@H](C)CC)NC1=O [compound 432] (HELM PEPTIDE1{[CCCCCCCCCCCC(=O)[*:2]].W.[meA].Q.K.I.L.D.D.H.[O=C([C@@H](N[*:1])C1CCCCC1)[*:2]].Q.R.V.W.G.[am]}$PEPTIDE1,PEPTIDE1,5:R3-9:R3$$$V2.0)	–
